Common to all, as to test: KINOMEscan competition binding
What all share (settings): compound 10.0 µM

Experiment [1] concerns the target BMPR1A (human) (UniProt P36894).
The target of experiment [2] is CDC2L2 (human) (UniProt Q9UQ88).
The target in experiment [3] is GRK4 (human) (UniProt P32298).
The target in experiment [4] is ITK (human) (UniProt Q08881).
The target in experiment [5] is MAPK11 (human) (UniProt Q15759).
Experiment [6] concerns the target NEK9 (human) (UniProt Q8TD19).
In experiment [7] the target is PAK4 (human) (UniProt O96013).
The target of experiment [8] is PIK3C2B (human) (UniProt O00750).
Experiment [9] addresses PIP5K1A (human) (UniProt Q99755).
For experiment [10], the target named is PTK6 (human) (UniProt Q13882).
Experiment [11] relates to RET (human), P07949 [V804M].
For experiment [12], the target named is RPS6KA5 KD1 (human) (UniProt O75582).
The target of experiment [13] is SRPK2 (human) (UniProt P78362).
The target in experiment [14] is TAOK1 (human) (UniProt Q7L7X3).
Experiment [15] addresses CHEK2 (human) (UniProt O96017).
The target in experiment [16] is EGFR (human) (UniProt P00533).
The test system of experiment [17] is EGFR (human), P00533 [746-750 del].
Experiment [18] deals with EGFR (human), P00533 [747-751 del / S ins].
The subject of experiment [19] is EGFR (human), P00533 [752-759 del].
The test system of experiment [20] is EGFR (human), P00533 [A750P; 747-749 del].
The subject of experiment [21] is EGFR (human), P00533 [G719C].
Experiment [22] deals with EGFR (human), P00533 [G719S].
In experiment [23] the test system is EGFR (human), P00533 [L858R].
Experiment [24] has as its system EGFR (human), P00533 [L861Q].
For experiment [25], the system named is EGFR (human), P00533 [P753S; 747-752 del].
Experiment [26] has as its system EGFR (human), P00533 [T790M/L858R].
Experiment [27] concerns the target RPS6KA3 KD1 (human) (UniProt P51812).

Structures are written as SMILES. “And” between values parts separate entries of the source, which are not always exact repeats. Equal entries are not always repeated.

Sequence of PIK3C2B (human) (O00750 whole entry, looked up): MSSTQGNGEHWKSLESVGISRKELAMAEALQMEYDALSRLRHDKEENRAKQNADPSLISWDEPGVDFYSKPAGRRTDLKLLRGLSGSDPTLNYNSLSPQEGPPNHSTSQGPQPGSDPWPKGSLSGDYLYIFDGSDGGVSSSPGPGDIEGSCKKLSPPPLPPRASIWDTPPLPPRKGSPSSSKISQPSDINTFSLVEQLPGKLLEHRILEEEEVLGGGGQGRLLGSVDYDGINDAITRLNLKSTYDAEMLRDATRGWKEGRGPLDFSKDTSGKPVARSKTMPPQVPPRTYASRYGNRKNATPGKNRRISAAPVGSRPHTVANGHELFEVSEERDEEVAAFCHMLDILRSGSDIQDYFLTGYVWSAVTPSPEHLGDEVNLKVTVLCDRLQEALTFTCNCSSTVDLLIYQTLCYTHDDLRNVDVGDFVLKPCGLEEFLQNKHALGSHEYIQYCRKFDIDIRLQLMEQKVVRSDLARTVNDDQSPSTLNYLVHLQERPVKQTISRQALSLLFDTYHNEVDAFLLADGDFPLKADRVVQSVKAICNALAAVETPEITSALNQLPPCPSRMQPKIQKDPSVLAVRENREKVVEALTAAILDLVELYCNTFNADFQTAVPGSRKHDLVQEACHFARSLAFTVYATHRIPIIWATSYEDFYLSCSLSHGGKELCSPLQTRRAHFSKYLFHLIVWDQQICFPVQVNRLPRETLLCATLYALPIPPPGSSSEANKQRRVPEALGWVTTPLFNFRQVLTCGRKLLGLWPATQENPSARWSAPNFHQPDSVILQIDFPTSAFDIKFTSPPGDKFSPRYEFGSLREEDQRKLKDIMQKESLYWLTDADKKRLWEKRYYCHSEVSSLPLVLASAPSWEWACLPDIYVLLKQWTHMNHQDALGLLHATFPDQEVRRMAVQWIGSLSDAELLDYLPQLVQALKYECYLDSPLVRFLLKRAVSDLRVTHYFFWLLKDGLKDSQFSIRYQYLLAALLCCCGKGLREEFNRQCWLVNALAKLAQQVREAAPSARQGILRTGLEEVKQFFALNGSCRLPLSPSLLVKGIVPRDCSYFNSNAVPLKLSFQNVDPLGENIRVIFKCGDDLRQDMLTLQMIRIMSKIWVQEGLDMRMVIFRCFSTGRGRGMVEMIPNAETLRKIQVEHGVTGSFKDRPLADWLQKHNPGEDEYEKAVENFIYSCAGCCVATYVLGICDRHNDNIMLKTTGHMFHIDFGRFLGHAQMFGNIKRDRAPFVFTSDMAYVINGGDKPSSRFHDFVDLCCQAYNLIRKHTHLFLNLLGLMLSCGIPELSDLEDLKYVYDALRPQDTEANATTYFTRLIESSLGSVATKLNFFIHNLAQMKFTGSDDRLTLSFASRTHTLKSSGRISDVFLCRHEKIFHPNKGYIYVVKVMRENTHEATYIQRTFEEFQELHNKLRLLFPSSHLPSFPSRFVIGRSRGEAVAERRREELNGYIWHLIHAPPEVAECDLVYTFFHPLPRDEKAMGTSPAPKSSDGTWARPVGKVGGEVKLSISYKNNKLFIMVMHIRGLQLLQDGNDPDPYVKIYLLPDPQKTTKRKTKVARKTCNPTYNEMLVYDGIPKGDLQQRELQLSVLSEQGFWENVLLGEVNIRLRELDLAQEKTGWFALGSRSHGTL
Sequence of TAOK1 (human) (Q7L7X3 whole entry, looked up): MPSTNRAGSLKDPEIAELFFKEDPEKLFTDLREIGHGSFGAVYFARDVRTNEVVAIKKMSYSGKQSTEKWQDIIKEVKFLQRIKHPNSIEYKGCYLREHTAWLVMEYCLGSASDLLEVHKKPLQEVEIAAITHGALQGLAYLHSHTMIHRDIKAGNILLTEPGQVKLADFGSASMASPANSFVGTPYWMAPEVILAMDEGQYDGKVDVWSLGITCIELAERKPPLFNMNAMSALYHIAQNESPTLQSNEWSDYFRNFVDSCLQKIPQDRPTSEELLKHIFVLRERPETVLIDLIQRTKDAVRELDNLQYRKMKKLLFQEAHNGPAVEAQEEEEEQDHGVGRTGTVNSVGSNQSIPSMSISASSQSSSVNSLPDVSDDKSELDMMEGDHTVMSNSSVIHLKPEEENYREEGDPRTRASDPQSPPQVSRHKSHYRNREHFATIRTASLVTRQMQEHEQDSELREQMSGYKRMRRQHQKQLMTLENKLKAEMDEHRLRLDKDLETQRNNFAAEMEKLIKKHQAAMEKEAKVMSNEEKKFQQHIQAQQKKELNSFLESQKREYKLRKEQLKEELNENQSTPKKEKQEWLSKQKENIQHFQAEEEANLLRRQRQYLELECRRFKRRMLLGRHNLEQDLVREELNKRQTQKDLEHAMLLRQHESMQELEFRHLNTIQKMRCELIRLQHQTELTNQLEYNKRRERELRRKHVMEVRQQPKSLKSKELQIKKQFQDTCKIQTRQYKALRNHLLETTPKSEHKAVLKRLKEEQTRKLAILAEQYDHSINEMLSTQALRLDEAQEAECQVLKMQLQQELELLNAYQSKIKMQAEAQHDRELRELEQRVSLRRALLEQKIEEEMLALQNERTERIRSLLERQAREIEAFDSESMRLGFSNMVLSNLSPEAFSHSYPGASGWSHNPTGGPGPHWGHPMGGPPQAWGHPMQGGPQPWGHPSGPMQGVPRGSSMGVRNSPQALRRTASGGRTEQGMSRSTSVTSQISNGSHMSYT
Sequence of NEK9 (human) (Q8TD19 whole entry, looked up): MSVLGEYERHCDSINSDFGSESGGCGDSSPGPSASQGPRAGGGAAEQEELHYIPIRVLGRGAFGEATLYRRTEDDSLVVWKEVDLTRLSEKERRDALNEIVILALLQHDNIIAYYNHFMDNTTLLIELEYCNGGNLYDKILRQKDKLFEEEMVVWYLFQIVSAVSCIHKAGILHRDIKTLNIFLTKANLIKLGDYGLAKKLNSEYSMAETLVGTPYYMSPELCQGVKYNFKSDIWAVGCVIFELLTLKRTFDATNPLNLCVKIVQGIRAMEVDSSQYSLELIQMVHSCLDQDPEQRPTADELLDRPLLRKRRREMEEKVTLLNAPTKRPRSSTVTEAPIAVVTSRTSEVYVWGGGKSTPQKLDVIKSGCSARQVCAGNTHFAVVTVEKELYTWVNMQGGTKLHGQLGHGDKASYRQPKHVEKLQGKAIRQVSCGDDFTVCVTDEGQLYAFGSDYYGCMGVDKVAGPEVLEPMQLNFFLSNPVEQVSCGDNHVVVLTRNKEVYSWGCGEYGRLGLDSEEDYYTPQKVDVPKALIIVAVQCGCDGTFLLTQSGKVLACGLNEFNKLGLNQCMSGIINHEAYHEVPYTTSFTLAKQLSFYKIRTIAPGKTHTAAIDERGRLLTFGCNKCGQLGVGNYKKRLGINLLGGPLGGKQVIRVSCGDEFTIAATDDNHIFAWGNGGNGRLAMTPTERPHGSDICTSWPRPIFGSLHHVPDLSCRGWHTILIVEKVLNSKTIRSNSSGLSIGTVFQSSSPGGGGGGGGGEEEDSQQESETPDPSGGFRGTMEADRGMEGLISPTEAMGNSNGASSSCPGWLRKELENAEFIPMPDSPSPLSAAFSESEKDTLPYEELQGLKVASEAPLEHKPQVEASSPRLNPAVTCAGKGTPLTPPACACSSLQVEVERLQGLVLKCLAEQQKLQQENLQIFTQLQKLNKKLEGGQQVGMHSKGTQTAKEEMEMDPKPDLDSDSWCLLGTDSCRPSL
Sequence of PAK4 (human) (O96013 whole entry, looked up): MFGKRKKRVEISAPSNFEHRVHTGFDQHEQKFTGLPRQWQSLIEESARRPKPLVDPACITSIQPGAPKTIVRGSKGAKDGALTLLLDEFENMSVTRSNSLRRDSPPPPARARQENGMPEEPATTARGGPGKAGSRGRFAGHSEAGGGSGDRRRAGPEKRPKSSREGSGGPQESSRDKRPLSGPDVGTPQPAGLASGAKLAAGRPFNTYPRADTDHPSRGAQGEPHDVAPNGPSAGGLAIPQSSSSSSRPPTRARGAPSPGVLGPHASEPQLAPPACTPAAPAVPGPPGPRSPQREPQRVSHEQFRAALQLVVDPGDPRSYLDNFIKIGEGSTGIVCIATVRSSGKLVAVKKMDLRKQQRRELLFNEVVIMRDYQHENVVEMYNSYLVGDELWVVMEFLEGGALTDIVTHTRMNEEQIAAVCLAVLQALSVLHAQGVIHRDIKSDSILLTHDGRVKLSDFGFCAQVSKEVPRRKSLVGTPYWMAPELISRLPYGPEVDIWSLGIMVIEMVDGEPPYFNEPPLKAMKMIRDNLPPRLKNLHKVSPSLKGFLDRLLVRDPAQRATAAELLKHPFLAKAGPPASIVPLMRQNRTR
Sequence of RPS6KA5 KD1 (human) (O75582 whole entry, looked up): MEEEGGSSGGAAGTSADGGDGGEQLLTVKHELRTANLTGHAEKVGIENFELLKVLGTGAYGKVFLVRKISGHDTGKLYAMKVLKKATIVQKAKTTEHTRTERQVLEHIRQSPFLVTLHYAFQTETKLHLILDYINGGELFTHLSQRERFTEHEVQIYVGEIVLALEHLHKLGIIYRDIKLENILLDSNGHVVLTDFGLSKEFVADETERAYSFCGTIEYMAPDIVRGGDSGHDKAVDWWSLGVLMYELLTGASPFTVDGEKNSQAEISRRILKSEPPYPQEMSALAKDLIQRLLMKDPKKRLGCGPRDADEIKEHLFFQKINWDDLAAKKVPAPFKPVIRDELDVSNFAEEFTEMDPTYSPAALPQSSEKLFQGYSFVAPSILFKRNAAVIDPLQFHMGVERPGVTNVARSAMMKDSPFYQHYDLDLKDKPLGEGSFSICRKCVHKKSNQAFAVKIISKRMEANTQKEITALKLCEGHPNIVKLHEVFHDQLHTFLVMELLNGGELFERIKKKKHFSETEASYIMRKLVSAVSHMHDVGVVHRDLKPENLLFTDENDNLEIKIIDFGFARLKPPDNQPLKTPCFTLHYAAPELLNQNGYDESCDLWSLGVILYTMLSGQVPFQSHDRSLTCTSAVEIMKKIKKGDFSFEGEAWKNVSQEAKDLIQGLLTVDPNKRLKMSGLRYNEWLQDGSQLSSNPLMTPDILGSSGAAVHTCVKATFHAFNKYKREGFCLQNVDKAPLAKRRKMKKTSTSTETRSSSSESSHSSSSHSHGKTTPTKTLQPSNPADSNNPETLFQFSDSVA

Turning to `Cc1cnc(-c2cnc(NCCNc3ccc(C#N)cn3)nc2-c2ccc(Cl)cc2Cl)[nH]1`, the kinase still bound, per cent of control in experiment [1], in [2], in experiment [3], in experiment [4], in experiment [5] and in experiment [6] was 100% in each case. The kinase still bound, per cent of control in experiment [7] came to 100%; in experiment [8], 91%; in experiment [9], 100%; in experiment [10], 100%; in experiment [11], 90%; in [12] it was 98%. In experiment [13], this molecule returned a kinase still bound, per cent of control of 100%.

`COc1ccc(CNC(=O)Nc2ncc([N+](=O)[O-])s2)cc1`: the kinase still bound, per cent of control in [1] was determined as 78%; in experiment [2], 100%; in experiment [3], 100%; in experiment [4], 95%; in experiment [5] it was 100%; in [6] it was 100%. Also, the kinase still bound, per cent of control in [7] worked out at 74%; in experiment [8] it was 94%; in experiment [9] it was 70%; in experiment [10], 92%; in experiment [11] it was 96%; in experiment [12] it was 100%. Further, the kinase still bound, per cent of control is 81% in experiment [13]; 85% and 100% in experiment [14].

On to `O=C1Nc2cc(Br)ccc2/C1=C1/Nc2ccccc2/C1=N\O`, for which the kinase still bound, per cent of control in experiment [1] turned out to be 66%; in experiment [2] it was 100%; in [15] it was 38%; in experiment [16], 44%; in experiment [17], 13%; in [18], 24%. The kinase still bound, per cent of control was 29% in [19]; 17% in [20]; 39% in experiment [21]; 35% in experiment [22]; 32% in experiment [23]; 34% in experiment [24]. Besides, the kinase still bound, per cent of control amounted to 38% in experiment [25]; 53% in experiment [26]; 1.8% in [3]; 11% in experiment [4]; 100% in [5]; 98% in experiment [6]. Further, the kinase still bound, per cent of control in [7] is 21%; in [8], 100%; in [9], 0%; in experiment [10] it was 84%; in experiment [11], 0%; in experiment [27], 80%. Besides, the kinase still bound, per cent of control in experiment [12] worked out at 47%; in experiment [13] it was 5.8%.

Take `Cn1cc(C2=C(c3ccc(Cl)cc3Cl)C(=O)NC2=O)c2ccccc21`: the kinase still bound, per cent of control is 100% in [1]; 100% in experiment [2]; 90% in [15]; 100% in [16]; 77% in experiment [17]; 91% in [18]. The kinase still bound, per cent of control worked out at 94% in [19]; 85% in experiment [20]; 100% in experiment [21]; 99% in [22]; 100% in [23]; 83% in [24]. Besides, the kinase still bound, per cent of control in [25] is 99%; in experiment [26], 97%; in experiment [3] it was 100%; in experiment [4], 100%; in experiment [5], 98%; in experiment [6], 100%. For the same molecule, the kinase still bound, per cent of control came to 82% in experiment [7]; 100% in [8]; 100% in experiment [9]; 100% in [10]; 83% in experiment [11]; 100% in experiment [27]. Besides, the kinase still bound, per cent of control in [12] is 98%; in experiment [13], 83%; in experiment [14], 90% and 98%.

Source of the values: the kinase profiling compilation of Christmann-Franck et al. (2016).
